Patent US10493061B2, “Compositions and methods comprising 2-(acylamino)imidazoles” (priority 2014, dated 2019)
Entries after “also recorded” stand apart in the source; their conditions may differ.

How the values were obtained:
[1] = tested on: MCF-10A cells; assay: Total cellular Zn^2+ by ICP-AES; format: cell-based, human; details: 30 μM ZNA with 30 μM ZnSO4, three hours; detection limit 1.00 μg/L
Protocol: (§1) Inductively coupled plasma-atomic emission spectroscopy (ICP-AES) analysis: Cells were cultured to 80% confluence in 10-cm plates and the growth media was then replaced with low serum (2% FBS) drug-containing media. After three hours of treatment, the media was discarded and the cells washed with 1×PBS. To each 10-cm plate, 1 mL of nitric acid (TraceSELECT Ultra for trace analysis, Sigma) was added directly to the plate. The nitric acid mixture was submitted for inductively coupled plasma-atomic emission spectroscopy (ICP-AES) analysis following methods established by the Environmental Protection Agency. Martin T D, Brockhoff C A, Creed J T. Method 200.7 Determination of Metals and Trace Elements in Water and Wastes by Inductively Coupled Plasma-Atomic Emission Spectrometry. Environmental Monitoring Systems Laboratory, US Environmental Protection Agency 1994. The experiment was performed in triplicate for each cell line and a fourth plate of cells was used to measure total protein (BCA assay, Thermo Fisher, Waltham, Mass., USA). The ICP-AES data were then normalized to total protein for each cell line used.
(§2) To further validate the combinatorial effect of ZNA and Zn^2+, inductively coupled plasma-atomic emission spectroscopy (ICP-AES) was employed to quantify absolute levels of cellular Zn^2+ following treatment. Four cell lines were treated with either 30 μM ZNA alone or 30 μM ZNA in conjunction with 30 μM ZnSO4 for three hours before harvesting. The samples were then analyzed by ICP-AES and the resulting data normalized to total protein (FIG. 8). […] The values obtained from the ICP-AES experiment correlate with the trends observed following FluoZin-3 measurements of Zn^2+, confirming the specificity of the fluorophore for Zn^2+ over other ions.

[2] = tested on: T47D cells; assay: Total cellular Zn^2+ by ICP-AES; format: cell-based, human; details: 30 μM ZNA with 30 μM ZnSO4, three hours
Protocol: as §1, §2

[3] = tested on: MCF-7 cells; assay: Total cellular Zn^2+ by ICP-AES; format: cell-based, human; details: 30 μM ZNA with 30 μM ZnSO4, three hours
Protocol: as §1, §2

[4] = tested on: MDA-MB-231 cells; assay: Total cellular Zn^2+ by ICP-AES; format: cell-based, human; details: 30 μM ZNA with 30 μM ZnSO4, three hours
Protocol: as §1, §2

[5] = tested on: MCF-10A normal mammary epithelial cell line; assay: Dose response, luciferase-based ATP (ATPlite) viability assay; format: cell-based, human; details: five days of treatment
[6] = tested on: MCF-10A cells; assay: Intracellular Zn^2+ by FluoZin-3 staining and flow cytometry; format: cell-based, human
Protocol: (§3) Measurement of intracellular Zn^2+ by FluoZin-3 staining: Cells were seeded in 6-well plates at a density such that at the time of analysis, wells would be 70-80% confluent. Following the completion of treatment, the drug-containing media was removed and replaced with Hank's Balanced Salt Solution (HBSS, Life Technologies) containing 2.5 μM FluoZin-3. The cells were incubated with the indicator for 30 minutes at room temperature in the dark. After staining, the cells were trypsinized, resuspended in HBSS containing 2% FBS, and relative mean fluorescence was measured by flow cytometry (FACscan, BD Biosciences, San Jose, Calif., USA).
(§4) In order to determine whether the transcriptional changes in metal trafficking genes were functionally relevant to ZNA's mechanism of action, intracellular Zn^2+ was quantified using the fluorescent indicator FluoZin-3 followed by flow cytometry analysis (FIG. 1G).
To better understand the cancer-selective synergism observed between ZNA and Zn^2+, an experiment was conducted to measure intracellular Zn^2+ using the fluorescent Zn^2+ indicator FluoZin-3.
(§5) Further probing the ability of ZNA to stimulate increases in intracellular Zn^2+, MCF-10A and MCF-7 cells were treated for three hours with 30 μM ZNA (both with and without exogenous ZnSO4) in zinc-free media; intracellular zinc was then quantified by FluoZin-3 staining (FIG. 3B).

[7] = tested on: cancer cells (malignant cell types tested); assay: Clonogenic cell survival assay; details: 24 hours ZNA, then three weeks of growth, crystal violet
Protocol: Clonogenic cell survival assays were conducted as described in Franken NAP, Rodermond H M, Stap J, Haveman J, van Bree C.
Further experiments were also conducted to assess the effects of short-term ZNA treatment on long-term cell survival and proliferation. Cells were treated for 24 hours with ZNA then cultured in the absence of the small molecule; following three weeks of growth, colonies were stained with crystal violet and quantified (FIG. 1D).

[8] = Isothermal titration calorimetry of the small molecule with zinc or copper; format: binding; details: ITC, data not shown
[9] = tested on: MCF-7 cells; assay: Intracellular Zn^2+ by FluoZin-3 staining and flow cytometry; format: cell-based, human
Protocol: as §3, §4, §5

[10] = tested on: hTERT-HMEC normal mammary epithelial cells; assay: Dose response, ATP cell viability assay; format: cell-based, human
[11] = tested on: transplanted PyMT mammary tumors; assay: Mouse mammary tumor model (transplanted PyMT tumors), Kaplan-Meier survival; format: in vivo
Protocol: In vivo ZNA studies: Mouse studies were conducted with the approval of an institutional animal care and use committee. FVB/NJ mice were obtained from The Jackson Laboratory (Bar Harbor, Me., USA). In preparation for the in vivo study, EF1α-PyMT mouse mammary tumors were generated in donor mice and the tumors resected and prepared as single cells as described previously by Smith et al. (6). These cells were suspended in Matrigel (BD Biosciences) and injected (50,000 cells per 10 μL injection) into the uncleared mammary fat pad of 3-week old female recipient FVB/NJ mice. Twenty-one days following the transplant, the mice were randomized, and drug treatment was initiated; the mice were treated once a day for 21 days, and a tumor diameter ≥2 cm was established as an endpoint. ZNA (100 mg/kg) or the matched vehicle control was administered to each mouse via a 200-μL intraperitoneal injection of ZNA diluted into DMSO, then diluted into phosphate buffered saline to a final DMSO concentration of 5%. ZnSO4 was administered continuously for the 21-day treatment period to the appropriate groups via drinking water (25 mM ZnSO4.7H2O).
Statistics: The student's t-test (unpaired) was used to assess statistical significance and a p≤0.05 was considered statistically significant. Statistical significance between Kaplan-Meier survival curves was measured by the Mantel-Cox test using Prism 6.0 (GraphPad Software). The following P-values were used to annotate statistical significance: p≤0.05=*; p≤0.01=**; p≤0.001=***.
Next, the efficacy of the compound was tested in an in vivo tumor model. […] Mice were treated once a day for 21 days, and four treatment conditions were assessed: ZNA (100 mg/kg administered via intraperitoneal), ZnSO4 (25 mM administered continuously for the duration of treatment via drinking water), a combination of ZNA and ZnSO4, and a control group (PBS administered via intraperitoneal injection); a tumor diameter greater than 2 cm was established as an endpoint.

[12] = tested on: MCF-7s; assay: Cell viability of MCF-7 cells treated with ZNA and ZNA analogues; format: cell-based, human; details: Homo sapiens, MCF7S; 24 h treatment
Text: Of the analogues evaluated, those with more electron-donating groups at C5 or on the N^2-carbonyl seem to improve activity.

[13] = 30 μM ZNA alone, three hours, zinc-free media
[14] = ZNA and ZnSO4, three hours, zinc-free media, compared to ZnSO4 alone

With `COc1ccc(-c2c(Cc3ccccc3)[nH]/c(=N\C(=O)c3ccccc3F)n2C)cc1` [ZNA, (E)-N-(4-benzyl-5-(4-methoxyphenyl)-1-methyl-1H-imidazol-2(3H)-ylidene)-2-fluorobenzamide] the “concentration of Zn^2+” value [1] was “not detectable”, the “concentration of Zn^2+” value [2] was 0.52 ng Zn^2+ per microgram of protein and the “concentration of Zn^2+” value [3] was 1.35 ng Zn^2+ per microgram of protein. The “concentration of Zn^2+” value [4] was 0.82 ng Zn^2+ per microgram of protein, the cell viability [5] was “largely unaffected” and the FluoZin-3 fluorescence [6, 13] was “no significant increase in FluoZin-3 fluorescence”. The “intracellular zinc (FluoZin-3)” value ([6]; 30 μM ZNA alone, up to 48 hours) was “only modest increases in intracellular zinc”, the “increase in FluoZin-3 fluorescence” value ([6]; 30 μM ZNA with 30 μM ZnSO4, three hours) was 9 fold and the “fluorescence (FluoZin-3)” value [6, 14] was “reduction in fluorescence”. The “long-term proliferative potential (colonies)” value [7] was “significantly affected long-term proliferative potential”, the “direct interaction with zinc or copper” value [8] was “no evidence to suggest direct binding” and the “increase in FluoZin-3 fluorescence” value ([9]; 30 μM ZNA alone, 48 hours) was 13 fold. The FluoZin-3 fluorescence [9, 13] was “no significant increase in FluoZin-3 fluorescence”, the “increase in fluorescence (FluoZin-3)” value [9, 14] was 4.3 fold and the cell viability [10] was “largely unaffected”. For the same compound, the survival ([11]; ZNA 100 mg/kg ip once a day for 21 days, vs control-treated group) was “statistically significant survival advantage”, the survival ([11]; ZNA 100 mg/kg ip once a day with 25 mM ZnSO4 in drinking water, 21 days, vs ZnSO4-only group) was “statistically significant survival advantage” and the “general toxicity, adverse reactions, body weight” value ([11]; mice, ZNA 100 mg/kg alone or with ZnSO4) was “no general toxicity, adverse reactions, or decreases in body weight were observed; also recorded: without detrimental effects on mouse weight and health”. For the same compound, the IC50 [12] was 8.8 µM.
